The text below walks through data of ChEMBL document CHEMBL1157539, “Thousands of chemical starting points for antimalarial lead identification” (Nature, 2010).

In the assay the test system is Plasmodium falciparum. As to the kind of experiment: GSK_TCMDC: Inhibition of Plasmodium falciparum 3D7 in whole erythrocytes, using parasite LDH activity as an index of growth. The note with it: Plasmodium falciparum, 3D7. The class given is functional, organism-based.
The compound `O=C(/C=C/c1cc([N+](=O)[O-])ccc1Cl)N1CCC(CCN2CCC(c3c[nH]c4ccccc34)CC2)CC1` showed an XC50 of 742 nM. The compound `Cn1ccc2c3c(N)nc(N)nc3ccc21` gave an XC50 of 902 nM. `COc1ccc2nc(C)cc(Nc3ccc(Oc4ccc5ccccc5c4)c(Cl)c3)c2c1` showed an XC50 of 691 nM. Turning to `COc1ccc(-c2cncc3ccc(C(=O)NCCCn4ccnc4)nc23)cc1`, the XC50 stood at 748 nM. `COc1ccc(CNC2CCN(C)CC2)cc1-c1ccc(S(=O)(=O)NC2CCC2)c(C)c1` yielded an XC50 of 993 nM. Regarding `O=C(Nc1ccc(F)c(F)c1)c1ccc(CN2CCCN(Cc3cccc(F)c3)CC2)cc1`, the XC50 is 1120 nM. In the case of `CN1CCN(CC(O)CNC(=O)Nc2ccc(Cl)cc2)CC1` (configuration not stated), the XC50 was determined as 230 nM. As for `CN(C)c1ccc(CN2CCCC(CNC(=O)c3ccc(-c4cccc(C(F)(F)F)c4)s3)C2)cc1` (configuration not stated), the XC50 was determined as 1200 nM.

In turn, `COc1cc(Nc2nccc(-c3c(-c4cccc(NC(=O)c5c(F)cccc5F)c4)nn4ncccc34)n2)cc(OC)c1OC` gave an XC50 of 32.6 nM. Compound `O=C(NCCNc1ccnc(Nc2ccc(F)cc2)n1)Nc1ccccc1F` showed an XC50 of 762 nM. Under `COc1ccc2ncc(C#N)c(CCN3CCC(NCc4cnc5c(c4)OCCO5)CC3)c2n1` stands 595 nM. The value for `CSc1cccc(NC(=O)Nc2ccc(I)c(OCCN(C)C)c2)c1` was 691 nM; that for `Cc1cc(N[C@@H](Cc2ccccc2)C(=O)NCCOc2ccccc2)nc(NCC2CCCCC2)n1` was 854 nM.

For `CC1CN(c2cnn(C/C=C/c3ccc(NC(=O)c4ccc([N+](=O)[O-])cc4)cc3)c(=O)c2Cl)CC(C)N1` (configuration not stated), the XC50 worked out at 700 nM. `COCCn1ccc2c3c(N)nc(N)nc3ccc21` had an XC50 of 214 nM.

Consider `COc1ccc(CNC2CCN(C)CC2)cc1-c1ccc(OC)c(S(=O)(=O)NCc2ccccc2)c1`, for which the XC50 turned out to be 951 nM. Under `CCOC(=O)C1CCN(CCOc2cc(NC(=O)/C=C/c3ccccc3Cl)ccc2Br)CC1` stands 991 nM. Compound `COc1ccc2nccc([C@@H](O)CN3CCC(NC(=O)C(c4cc5ccccc5o4)N4CCN(C(c5ccccc5)c5ccccc5)CC4)CC3)c2c1` (some centres not stated) had an XC50 of 149 nM. In turn, `COc1ccccc1CCNc1ncc(F)c(N[C@@H](Cc2ccccc2)C(=O)NCCc2ccccc2)n1` gave an XC50 of 965 nM. The value for `C=CCOC(=O)N1CCC(CNCc2cccc(-c3ccc(-c4nc5cc(C(F)(F)F)ccc5[nH]4)cc3)c2)C1` (configuration not stated) was 146 nM; that for `COc1ccc(-c2ccc(NC(=O)c3ccc(Cl)cc3)cc2)cc1CN1CCN(C)CC1` was 823 nM; that for `O=C(NC1CCC(CCN2Cc3ccc(Br)cc3C2)CC1)c1cccc(-c2cccnc2)c1` (configuration not stated) was 927 nM. With `CNC(=O)c1cc(S(=O)(=O)N2CCN(c3ccccn3)CC2)cs1`, the XC50 amounted to 669 nM. Compound `CCCC(=O)c1c(O)c2ccccc2oc1=O` registered an XC50 of 265 nM.

Compound `O=C(NCCCCN1CCC(c2ccc3c(c2O)CCCC3)CC1)c1ccc(-c2ccc(Cl)cc2)cc1` yielded an XC50 of 754 nM. Turning to `COc1ccc(-c2nc3ccc(C)nc3nc2-c2ccc(OC)cc2)cc1`, the XC50 amounted to 1110 nM.

In turn, `O=[N+]([O-])c1ccc(C=NNc2nc3ccccc3[nH]2)cc1` returned an XC50 of 283 nM. For the compound `Clc1ccc(-c2ccc(CNCCCN3CCCC3)cc2)cc1`, the XC50 amounted to 1060 nM. Under `CCOc1c(Br)cc(Cl)cc1CNCCCNc1nc2ccccc2[nH]1` stands 689 nM; under `Oc1cccc(Nc2nc(NCc3ccco3)c3ccccc3n2)c1`, 415 nM; under `CCCNS(=O)(=O)c1ccc(NC(=O)C(C)Oc2ccc([N+](=O)[O-])cc2)cc1` (configuration not stated), 719 nM. Under `COc1ccc2nccc(NC(=O)N3CCC(NCc4cc5c(F)ccc(F)c5[nH]4)CC3)c2n1` stands 221 nM; under `CC(=NNC(=N)N)c1ccc2c(c1)Cc1ccccc1-2`, 1410 nM; under `O=C(NCc1ccccc1)Nc1cccc(-c2cccc(-c3nc4cc(C(F)(F)F)ccc4[nH]3)c2)c1`, 264 nM. Compound `Cc1noc(C)c1-c1ccc2c(Nc3ccc(C(F)(F)F)cc3)c(C(N)=O)cnc2c1` returned an XC50 of 319 nM.

For `Cc1ccc(NC(=O)N2CCN(CCCCCNC(=O)/C=C/c3ccc(Cl)c(Cl)c3)CC2)cc1C`, the XC50 is 1100 nM. The value for `Cc1ccc2c(=NN=Cc3cccc(Cl)c3)cc(C)[nH]c2c1` was 949 nM; that for `CN1CCN(Cc2cc3cc(NC(=O)/C=C/c4ccc(Cl)cc4)ccc3s2)CC1` was 767 nM; that for `COc1cc2nc(C)nc(Nc3ccc4c(ccn4Cc4ccccc4)c3)c2cc1OC` was 556 nM. Compound `CCNc1cc(C)nc(Nc2ccccc2)n1` came in with an XC50 of 883 nM. The value for `COc1ccc(C(=O)N[C@@H](CC(C)C)C(=O)N[C@H](/C=N/NC(=O)c2ccccc2)CCc2ccccc2)cc1OCCN1CCOCC1` was 173 nM. As to `CC(O)C1CCCCN1C(=O)c1cccc(-c2cccc(-c3nc4cc(C(F)(F)F)ccc4[nH]3)c2)c1` (configuration not stated), the XC50 amounted to 280 nM.

`CCn1c(-c2nc(-c3ccc4c(c3)OCO4)cnc2N)nc2cnccc21` came in with an XC50 of 429 nM.

The compound `O=C(NC1CC1)c1ccc(N2CCCC(COc3ccc4c(c3)CCCC4)C2)nc1` (configuration not stated) returned an XC50 of 1080 nM. For the compound `CCOC(=O)/C(=N\OC(C)(C)C(=O)NCc1ccc(O)c(O)c1)c1csc(NC(c2ccccc2)(c2ccccc2)c2ccccc2)n1`, the XC50 was 170 nM. The compound `CC(C)CN1C(=O)c2ccccc2C(C(=O)Nc2cccc(C#N)c2)C1c1cccs1` (configuration not stated) had an XC50 of 159 nM.

For `COc1ccc(NC(=O)Nc2cccc(-c3ccncc3)c2)cc1N1CCN(C)CC1`, the XC50 amounted to 552 nM. Turning to `COc1ccc2cc(C(=O)Nc3ccc4c(c3)CCN(C3CCC3)CC4)ccc2c1`, the XC50 turned out to be 838 nM. Take `Cc1[nH]c(C)c(-c2ccc(OCc3cccc(C(F)(F)F)c3)nc2)c(=O)c1Br`: the XC50 came out at 40.3 nM. For `O=C(c1cccc(-c2cccc(-c3nc4ccccc4[nH]3)c2)c1)N1CCCCC1CN1CCC(O)C1` (configuration not stated), the XC50 was 728 nM.

`CCOC(=O)C1=C(C)NC2=C(C(=O)CC(C)(C)C2)C1c1ccc(Br)cc1` (configuration not stated) had an XC50 of 1160 nM.

`CCC(CCON1C(N)=NC(N)=NC1(C)C)c1ccc(Cl)c(Cl)c1` (configuration not stated): the XC50 worked out at 3.2 nM. The value for `COc1cccc(O)c1CNCC(O)c1cccc(C(F)(F)F)c1` (configuration not stated) was 945 nM; that for `O=C(/C=C/c1ccc(Cl)c(Cl)c1)NC1CCC(CN2CCC(c3nc4ccccc4n3CCCO)CC2)CC1` (configuration not stated) was 577 nM; that for `O=c1ccc2ccc(F)c3c2n1CC3CN1CCC(NCc2cccc(-c3ccccc3F)c2)CC1` (configuration not stated) was 1100 nM. In turn, `O=C(NCC1CCCCC1)c1cc(=O)c2ccccc2o1` registered an XC50 of 320 nM.

Consider `O=C(Nc1ccc(OC2CCN(Cc3ccco3)CC2)c(Cl)c1)c1ccc2ncccc2c1`, for which the XC50 amounted to 949 nM.

`Cc1cc(-c2ccc(CNC3CCN(C)CC3)cc2)ccc1S(=O)(=O)NCc1ccccc1` displayed an XC50 of 851 nM.

As for `Cc1c(-c2cccc(C(C)(C)NC3CCN(Cc4ccccc4)CC3)c2)cnc(N)c1C`, the XC50 was 579 nM.

Turning to `CC1(C)NC(N)=NC(=N)N1OCCCOc1cc(Cl)cc(Cl)c1`, the XC50 turned out to be 3.2 nM. As for `Cc1cc(NCCC(=O)NCCOc2ccccc2)nc(Nc2ccccc2)n1`, the XC50 was 1060 nM. Under `CCOC(=O)c1ccc(N=C2SC(=Cc3cc(Br)ccc3O)C(=O)N2C)cc1` stands 998 nM; under `O=C(NCC1CC1)C1Cc2c([nH]c3ccc(Br)cc23)C2(CCN(CCc3ccccc3)CC2)N1` (configuration not stated), 908 nM; under `Cc1c2c(nn1-c1ccccc1)C(c1ccccc1)N(c1ccccc1)C2=O` (configuration not stated), 147 nM.

Compound `COc1ccc(C2CCN(CCCCNC(=O)c3ccc(NC(=O)c4ccc(Cl)cc4)cc3)CC2)c(C)c1` displayed an XC50 of 747 nM. For the compound `CNCCNCc1ccc(-c2cccc(-c3nc4cc(F)ccc4[nH]3)c2)cc1`, the XC50 came out at 1130 nM.

In turn, `CC1CN(Cc2ccc(-c3cccc(-c4nc5cc(F)ccc5[nH]4)c3)cc2)CC(C)O1` (configuration not stated) came in with an XC50 of 917 nM. In turn, `N=C(N)NC(=O)Nc1cc(F)c(Cl)c(Br)c1` registered an XC50 of 993 nM. The value for `Cc1cc(N[C@@H](Cc2ccccc2)C(=O)NCCOc2ccccc2)nc(NCCc2ccccn2)n1` was 1520 nM. In turn, `Cn1nc(-c2ccc(S(=O)(=O)N3CCC(CCN4CCC(c5c[nH]c6ccccc56)CC4)CC3)s2)cc1C(F)(F)F` returned an XC50 of 815 nM. Regarding `CCOC(=O)/C(=N\OC(C(=O)OC(C)(C)C)c1ccccc1)c1csc(NC(c2ccccc2)(c2ccccc2)c2ccccc2)n1` (configuration not stated), the XC50 is 1110 nM.

`COc1ccc(C=Cc2ccc(-c3c(C)[nH]c(C)c(Cl)c3=O)cc2)cc1OC` came in with an XC50 of 283 nM.

On to `CCCN(C(=O)c1ccccc1C)c1nnc(-c2cccc(C)c2)s1`, for which the XC50 turned out to be 896 nM.

Turning to `CC(C)(C)CCN1CCC(NC(=O)c2ccc(-c3cccc(C(F)(F)F)c3)s2)CC1`, the XC50 is 755 nM. In the case of `CCc1cn2c3c(cc(C(=O)N[C@@H](Cc4cccc(Cl)c4)[C@H](O)CNC4CCCCC4)cc13)N(C)S(=O)(=O)CC2`, the XC50 was determined as 57.1 nM. Under `COC(=O)c1ccc2nc(-c3ccc(C(=O)NC4CCN(Cc5ccccc5)CC4)s3)[nH]c2c1` stands 688 nM; under `O=C(/C=C/c1ccc(Cl)c(Cl)c1)N1CCC(CN2CCC(c3nc4ccccc4n3CCCO)CC2)CC1`, 839 nM; under `CCOC(=O)c1cccc(NC(=N)Nc2nc(C)cc(NCCc3ccccc3)n2)c1`, 684 nM.

In the case of `O=C(Nc1ccc(Cl)cc1)Nc1ccc(Cn2ncc(N3CCCNCC3)c(Cl)c2=O)cc1`, the XC50 stood at 783 nM. As for `O=C(Nc1cccc(C(F)(F)F)c1)N1CCOC(CCN2CCC(c3ccccc3)CC2)(c2ccc(Cl)c(Cl)c2)C1` (configuration not stated), the XC50 stood at 1110 nM. Under `CC(CCc1ccccc1)NCC(O)c1ccc2c3c(cccc13)S(=O)(=O)N2C` (configuration not stated) stands 627 nM. As for `C=CCN1C(=O)c2[nH]nc(-c3cc(C)c(C)cc3O)c2C1c1cccc(Br)c1` (configuration not stated), the XC50 was 1160 nM. Turning to `OC[C@H]1CCCN1CC#Cc1cc2c(Nc3ccc(OCc4cccc(F)c4)c(Cl)c3)ncnc2s1`, the XC50 amounted to 1210 nM. For `CS(=O)(=O)c1cccc(-c2cnc(N)c3cc(-c4cccc(F)c4)ccc23)c1`, the XC50 is 860 nM. The value for `CCOc1ccccc1C(=O)N1CCc2cc3nccc(N4CCN5CCC[C@H]5C4)c3cc21` was 753 nM; that for `COc1cc2nc(N3CCC(CNC(=O)c4cccc5cccnc45)CC3)nc(N)c2cc1OC` was 1700 nM. As to `Cc1ccc(-c2cc3nc4c(c(NCCCn5ccnc5)n3n2)CCC4)cc1`, the XC50 stood at 925 nM.
